Measured values taken from paper PMC9587032, “Mapping periplasmic binding protein oligosaccharide recognition with neutron crystallography” (Scientific Reports, 2022).

Molecular target: T1, tmMBP (tmMBP2 isoform; maltodextrin-binding protein) (Thermotoga maritima, UniProt Q9S5Y1)
T1 construct: gene TM_1839; H/D-exchanged crystal, single chain in asymmetric unit
T1 sequence (Q9S5Y1 20-393): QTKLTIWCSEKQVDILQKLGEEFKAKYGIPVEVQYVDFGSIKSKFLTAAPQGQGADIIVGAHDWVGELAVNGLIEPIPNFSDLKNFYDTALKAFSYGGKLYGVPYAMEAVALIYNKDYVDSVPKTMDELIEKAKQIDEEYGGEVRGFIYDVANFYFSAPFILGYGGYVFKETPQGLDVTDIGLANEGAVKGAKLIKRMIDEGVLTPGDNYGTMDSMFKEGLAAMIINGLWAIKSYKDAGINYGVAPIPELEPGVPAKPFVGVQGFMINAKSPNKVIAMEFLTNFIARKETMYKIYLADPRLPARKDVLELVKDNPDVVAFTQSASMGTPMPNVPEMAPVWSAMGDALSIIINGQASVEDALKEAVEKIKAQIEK
Experiment: joint neutron/X-ray crystal structure
Details: pH 5.5 crystals, room temperature, D2O exchanged; interdomain binding site; neutron 2.10 A, X-ray 1.70 A

OC[C@H]1O[C@H](O[C@H]2[C@H](O)[C@@H](O)[C@@H](O[C@H]3[C@H](O)[C@@H](O)[C@@H](O[C@H]4[C@H](O)[C@@H](O)C(O)O[C@@H]4CO)O[C@@H]3CO)O[C@@H]2CO)[C@H](O)[C@@H](O)[C@@H]1O (stereo partly shown) [maltotetraose]
joint neutron/X-ray crystal structure: final refined atomic model for maltotetraose bound tmMBP have been deposited
